Results reported in the NIST ThermoML archive (doi:10.1016/j.jct.2006.11.003).

Experiment: xn = mol fraction of the nth substance listed
Conditions: 101 kPa, Liquid

Cc1cccc(C)c1 [1,3-dimethylbenzene] + CN1CCCC1=O
Conditions | mass density [kg/m3]
293.15 K, x1 = 0.0451 | 1024.18
293.15 K, x1 = 0.1145 | 1011.33
293.15 K, x1 = 0.1874 | 998.07
293.15 K, x1 = 0.2451 | 987.76
293.15 K, x1 = 0.3258 | 973.58
293.15 K, x1 = 0.3987 | 961
293.15 K, x1 = 0.4657 | 949.63
293.15 K, x1 = 0.5214 | 940.31
293.15 K, x1 = 0.5985 | 927.59
293.15 K, x1 = 0.6584 | 917.85
293.15 K, x1 = 0.7214 | 907.73
293.15 K, x1 = 0.7987 | 895.48
293.15 K, x1 = 0.8547 | 886.71
293.15 K, x1 = 0.9048 | 878.92
293.15 K, x1 = 0.9597 | 870.47
293.15 K, x1 = 1 | 864.31
303.15 K, x1 = 0.0541 | 1013.3
303.15 K, x1 = 0.1134 | 1002.37
303.15 K, x1 = 0.1954 | 987.52
303.15 K, x1 = 0.2562 | 976.72
303.15 K, x1 = 0.3214 | 965.31
303.15 K, x1 = 0.3895 | 953.58
303.15 K, x1 = 0.4487 | 943.53
303.15 K, x1 = 0.5014 | 934.7
303.15 K, x1 = 0.5782 | 922.02
303.15 K, x1 = 0.6484 | 910.6
303.15 K, x1 = 0.7154 | 899.86
303.15 K, x1 = 0.7654 | 891.93
303.15 K, x1 = 0.8241 | 882.72
303.15 K, x1 = 0.8815 | 873.79
303.15 K, x1 = 0.9465 | 863.8
303.15 K, x1 = 1 | 855.64
313.15 K, x1 = 0.0487 | 1005.18
313.15 K, x1 = 0.1151 | 992.96
313.15 K, x1 = 0.1745 | 982.21
313.15 K, x1 = 0.2495 | 968.86
313.15 K, x1 = 0.3147 | 957.46
313.15 K, x1 = 0.3851 | 945.34
313.15 K, x1 = 0.4587 | 932.89
313.15 K, x1 = 0.5185 | 922.93
313.15 K, x1 = 0.6214 | 906.08
313.15 K, x1 = 0.6785 | 896.89
313.15 K, x1 = 0.7484 | 885.77
313.15 K, x1 = 0.7945 | 878.53
313.15 K, x1 = 0.8521 | 869.55
313.15 K, x1 = 0.9021 | 861.83
313.15 K, x1 = 0.9548 | 853.77
313.15 K, x1 = 1 | 846.9
323.15 K, x1 = 0.0548 | 995.37
323.15 K, x1 = 0.1154 | 984.22
323.15 K, x1 = 0.1754 | 973.34
323.15 K, x1 = 0.2354 | 962.63
323.15 K, x1 = 0.2965 | 951.89
323.15 K, x1 = 0.3551 | 941.73
323.15 K, x1 = 0.4158 | 931.36
323.15 K, x1 = 0.4814 | 920.31
323.15 K, x1 = 0.5385 | 910.84
323.15 K, x1 = 0.5821 | 903.68
323.15 K, x1 = 0.6514 | 892.44
323.15 K, x1 = 0.7085 | 883.3
323.15 K, x1 = 0.7765 | 872.54
323.15 K, x1 = 0.8512 | 860.88
323.15 K, x1 = 0.9374 | 847.61
323.15 K, x1 = 1 | 838.09
333.15 K, x1 = 0.0451 | 987.86
333.15 K, x1 = 0.1102 | 975.88
333.15 K, x1 = 0.1985 | 959.95
333.15 K, x1 = 0.2511 | 950.64
333.15 K, x1 = 0.3201 | 938.59
333.15 K, x1 = 0.3952 | 925.71
333.15 K, x1 = 0.4625 | 914.36
333.15 K, x1 = 0.5214 | 904.57
333.15 K, x1 = 0.5985 | 891.95
333.15 K, x1 = 0.6584 | 882.28
333.15 K, x1 = 0.7121 | 873.71
333.15 K, x1 = 0.7741 | 863.94
333.15 K, x1 = 0.8351 | 854.42
333.15 K, x1 = 0.8812 | 847.31
333.15 K, x1 = 0.9487 | 836.99
333.15 K, x1 = 1 | 829.22
343.15 K, x1 = 0.0547 | 977.18
343.15 K, x1 = 0.1241 | 964.43
343.15 K, x1 = 0.1887 | 952.77
343.15 K, x1 = 0.2654 | 939.18
343.15 K, x1 = 0.3214 | 929.42
343.15 K, x1 = 0.3985 | 916.19
343.15 K, x1 = 0.4658 | 904.84
343.15 K, x1 = 0.5214 | 895.6
343.15 K, x1 = 0.5985 | 882.97
343.15 K, x1 = 0.6541 | 874
343.15 K, x1 = 0.7014 | 866.44
343.15 K, x1 = 0.7654 | 856.33
343.15 K, x1 = 0.8354 | 845.41
343.15 K, x1 = 0.8924 | 836.63
343.15 K, x1 = 0.9469 | 828.32
343.15 K, x1 = 1 | 820.29
353.15 K, x1 = 0.0544 | 968.44
353.15 K, x1 = 0.1214 | 956.1
353.15 K, x1 = 0.1958 | 942.64
353.15 K, x1 = 0.2562 | 931.9
353.15 K, x1 = 0.3214 | 920.5
353.15 K, x1 = 0.3985 | 907.25
353.15 K, x1 = 0.4515 | 898.28
353.15 K, x1 = 0.5114 | 888.28
353.15 K, x1 = 0.5941 | 874.69
353.15 K, x1 = 0.6621 | 863.71
353.15 K, x1 = 0.7214 | 854.26
353.15 K, x1 = 0.7852 | 844.22
353.15 K, x1 = 0.8471 | 834.59
353.15 K, x1 = 0.8915 | 827.76
353.15 K, x1 = 0.9565 | 817.85
353.15 K, x1 = 1 | 811.29

Cc1ccc(C)cc1 [1,4-dimethylbenzene] + CN1CCCC1=O
Conditions | mass density [kg/m3]
293.15 K, x1 = 0.0511 | 1023.02
293.15 K, x1 = 0.1204 | 1010.11
293.15 K, x1 = 0.1985 | 995.8
293.15 K, x1 = 0.2451 | 987.37
293.15 K, x1 = 0.2987 | 977.77
293.15 K, x1 = 0.3458 | 969.44
293.15 K, x1 = 0.4012 | 959.72
293.15 K, x1 = 0.4781 | 946.42
293.15 K, x1 = 0.5314 | 937.3
293.15 K, x1 = 0.5984 | 925.99
293.15 K, x1 = 0.6558 | 916.4
293.15 K, x1 = 0.7154 | 906.57
293.15 K, x1 = 0.7841 | 895.34
293.15 K, x1 = 0.8512 | 884.52
293.15 K, x1 = 0.9254 | 872.69
293.15 K, x1 = 1 | 860.95
303.15 K, x1 = 0.0645 | 1011.3
303.15 K, x1 = 0.1151 | 1001.91
303.15 K, x1 = 0.1814 | 989.76
303.15 K, x1 = 0.2654 | 974.62
303.15 K, x1 = 0.3214 | 964.66
303.15 K, x1 = 0.3854 | 953.43
303.15 K, x1 = 0.4515 | 941.97
303.15 K, x1 = 0.5024 | 933.26
303.15 K, x1 = 0.5685 | 922.06
303.15 K, x1 = 0.6214 | 913.21
303.15 K, x1 = 0.6754 | 904.26
303.15 K, x1 = 0.7451 | 892.85
303.15 K, x1 = 0.8114 | 882.12
303.15 K, x1 = 0.8841 | 870.51
303.15 K, x1 = 0.9514 | 859.89
303.15 K, x1 = 1 | 852.3
313.15 K, x1 = 0.0521 | 1004.87
313.15 K, x1 = 0.1142 | 993.77
313.15 K, x1 = 0.1721 | 983.53
313.15 K, x1 = 0.2302 | 973.36
313.15 K, x1 = 0.3065 | 960.16
313.15 K, x1 = 0.3615 | 950.77
313.15 K, x1 = 0.4115 | 942.31
313.15 K, x1 = 0.4841 | 930.18
313.15 K, x1 = 0.5547 | 918.53
313.15 K, x1 = 0.6208 | 907.77
313.15 K, x1 = 0.7055 | 894.15
313.15 K, x1 = 0.7805 | 882.26
313.15 K, x1 = 0.8372 | 873.36
313.15 K, x1 = 0.8947 | 864.42
313.15 K, x1 = 0.9539 | 855.29
323.15 K, x1 = 0.0575 | 994.81
323.15 K, x1 = 0.1247 | 982.32
323.15 K, x1 = 0.2011 | 968.35
323.15 K, x1 = 0.2784 | 954.42
323.15 K, x1 = 0.338 | 943.85
323.15 K, x1 = 0.4015 | 932.73
323.15 K, x1 = 0.4697 | 920.97
323.15 K, x1 = 0.5389 | 909.19
323.15 K, x1 = 0.6003 | 898.9
323.15 K, x1 = 0.6674 | 887.8
323.15 K, x1 = 0.7245 | 878.46
323.15 K, x1 = 0.7806 | 869.38
323.15 K, x1 = 0.8341 | 860.82
323.15 K, x1 = 0.8947 | 851.21
323.15 K, x1 = 0.9481 | 842.83
323.15 K, x1 = 1 | 834.76
333.15 K, x1 = 0.0462 | 987.58
333.15 K, x1 = 0.1025 | 977.11
333.15 K, x1 = 0.1724 | 964.26
333.15 K, x1 = 0.2354 | 952.85
333.15 K, x1 = 0.2951 | 942.18
333.15 K, x1 = 0.3658 | 929.72
333.15 K, x1 = 0.4315 | 918.31
333.15 K, x1 = 0.5007 | 906.49
333.15 K, x1 = 0.5714 | 894.57
333.15 K, x1 = 0.6378 | 883.55
333.15 K, x1 = 0.7047 | 872.6
333.15 K, x1 = 0.7533 | 864.73
333.15 K, x1 = 0.8258 | 853.13
333.15 K, x1 = 0.8846 | 843.83
333.15 K, x1 = 0.9479 | 833.93
333.15 K, x1 = 1 | 825.86
343.15 K, x1 = 0.0675 | 974.69
343.15 K, x1 = 0.1353 | 962.13
343.15 K, x1 = 0.2024 | 949.85
343.15 K, x1 = 0.2715 | 937.41
343.15 K, x1 = 0.3376 | 925.68
343.15 K, x1 = 0.4061 | 913.71
343.15 K, x1 = 0.4719 | 902.38
343.15 K, x1 = 0.5422 | 890.46
343.15 K, x1 = 0.6103 | 879.09
343.15 K, x1 = 0.6749 | 868.44
343.15 K, x1 = 0.7405 | 857.78
343.15 K, x1 = 0.8049 | 847.44
343.15 K, x1 = 0.8674 | 837.54
343.15 K, x1 = 0.9308 | 827.6
343.15 K, x1 = 0.9788 | 820.15
343.15 K, x1 = 1 | 816.87
353.15 K, x1 = 0.0567 | 967.91
353.15 K, x1 = 0.1134 | 957.31
353.15 K, x1 = 0.1826 | 944.57
353.15 K, x1 = 0.2527 | 931.85
353.15 K, x1 = 0.3072 | 922.09
353.15 K, x1 = 0.3857 | 908.27
353.15 K, x1 = 0.4584 | 895.67
353.15 K, x1 = 0.5036 | 887.95
353.15 K, x1 = 0.5757 | 875.79
353.15 K, x1 = 0.6382 | 865.4
353.15 K, x1 = 0.7016 | 855.01
353.15 K, x1 = 0.7613 | 845.35
353.15 K, x1 = 0.8139 | 836.93
353.15 K, x1 = 0.8846 | 825.75
353.15 K, x1 = 0.9378 | 817.44
353.15 K, x1 = 1 | 807.81
